According to patent US11008295B2, “Compounds having antiinfective, antitumoral and antifungal activity” (priority 2017, dated 2021):

Columns and labels:
C. glabrata = details: clinical strain; cited from earlier work
A. fumigatus = details: clinical strain; cited from earlier work
A. flavus = details: clinical strain; cited from earlier work
C. parapsilopsis = details: C. parapsilosis, clinical strain; cited from earlier work
C. guilliermondii = details: C. guillermondii, clinical strain; cited from earlier work
C. Krusei = details: clinical strain; cited from earlier work
C. albicans = details: clinical strain; cited from earlier work
A. terreus = details: clinical strain; cited from earlier work
C. tropicalis = details: clinical strain; cited from earlier work
A. niger = details: clinical strain; cited from earlier work
C. lusitaniae = details: clinical strain; cited from earlier work
M. abscessus = test: Kirby-Bauer disk diffusion susceptibility test; format: cell-based, Mycobacterium abscessus; details: M. abscessus strain 690, isolation year 2012
Protocol: (§1) Bacterial strains, from clinical origin, were supplied by the National Center for Microbiology, Institute of Health Carlos III (Majadahonda, Madrid). They are detailed in Table I.
(§2) Bacterial cells suspension in sterile saline was prepared from a culture of 24-72 h, depending on bacterial species, in Mueller-Hinton Agar with 5% sheep blood. Each suspension was adjusted to a fixed size inoculum of 1-5×10^8 CFU/ml with a spectrophotometer (Ferraro, M J National Committee for Clinical Laboratory Standards. 2000).
(§3) Kirby-Bauer disk diffusion susceptibility test protocol was utilized to determine the sensitivity or resistance of pathogenic bacteria against the compounds and others antibiotics. The absence of growth around the disks is an indirect measure of the ability of this compound to inhibit an organism (Kirby, W. et al., Antibiotics Annu. 1956-1957:892). After 18 to 72 hours of incubation at […], with or without CO2, under aerobic or anaerobic conditions, depending on the bacterial species, halo of growth inhibition were obtained and evaluated.
(§4) Interpretation of susceptibility and resistance was based on the presence or absence of a zone of inhibition surrounding the disk. Kirby-Bauer disk diffusion susceptibility test is a common method which uses antibiotic-impregnated wafers to test whether bacteria are affected by antibiotics. The size of the zone of inhibition depends on how effective the antibiotic is at stopping the growth of the bacterium. A stronger antibiotic will create a larger zone, because a lower concentration of the antibiotic is enough to stop growth.

M. fortuitum = test: Kirby-Bauer disk diffusion susceptibility test; format: cell-based; details: M. fortuitum strain 1080, isolation year 2011
Protocol: as §1, §2, §3, §4

N. cyriacigeorgica = test: Kirby-Bauer disk diffusion susceptibility test; format: cell-based
Protocol: as §1, §2, §3, §4

M. chelonae = test: Kirby-Bauer disk diffusion susceptibility test; format: cell-based; details: M. chelonae strain 870, isolation year 2011
Protocol: as §1, §2, §3, §4

P. aeruginosa = test: Kirby-Bauer disk diffusion susceptibility test; format: cell-based; details: P. aeruginosa strain 96, isolation year 2014
Protocol: as §1, §2, §3, §4

N. carnea = test: Kirby-Bauer disk diffusion susceptibility test; format: cell-based, Nocardia carnea
Protocol: as §1, §2, §3, §4

T. pulmonis = test: Kirby-Bauer disk diffusion susceptibility test; format: cell-based, Tsukamurella pulmonis
Protocol: as §1, §2, §3, §4

B. cereus = test: Kirby-Bauer disk diffusion susceptibility test; format: cell-based, Bacillus cereus
Protocol: as §1, §2, §3, §4

E. faecalis = test: Kirby-Bauer disk diffusion susceptibility test; format: cell-based
Protocol: as §1, §2, §3, §4

E. faecium = test: Kirby-Bauer disk diffusion susceptibility test; format: cell-based
Protocol: as §1, §2, §3, §4

E. coli = test: Kirby-Bauer disk diffusion susceptibility test; format: cell-based
Protocol: as §1, §2, §3, §4

S. epidermidis = test: Kirby-Bauer disk diffusion susceptibility test; format: cell-based
Protocol: as §1, §2, §3, §4

S. aureus = test: Kirby-Bauer disk diffusion susceptibility test; format: cell-based
Protocol: as §1, §2, §3, §4

A. baumannii = test: Kirby-Bauer disk diffusion susceptibility test; format: cell-based
Protocol: as §1, §2, §3, §4

[1] = N cyriacigeorgica strain 199, isolation year 2005
[2] = N. cyriacigeorgica strain 30, isolation year 2005
[3] = N. carnea strain 40, isolation year 2011
[4] = N. carnea strain 769, isolation year 2009
[5] = T. pulmonis strain 40, isolation year 2015
[6] = T. pulmonis strain 1991, isolation year 2009
[7] = B. cereus strain 25, isolation year 2014
[8] = B. cereus strain 182, isolation year 2013
[9] = E. coli strain 29, isolation year 2012
[10] = E. coli strain 305, isolation year 2008
Further: key: I = intermediate activity; S = susceptibility; R = Resistance.

Molecule | Characteristics of the strains: susceptibility to the antifungal (C. glabrata) | Characteristics of the strains: susceptibility to the antifungal (A. fumigatus) | Characteristics of the strains: susceptibility to the antifungal (A. flavus) | Characteristics of the strains: susceptibility to the antifungal (C. parapsilopsis) | Characteristics of the strains: susceptibility to the antifungal (C. guilliermondii) | Characteristics of the strains: susceptibility to the antifungal (C. Krusei) | Characteristics of the strains: susceptibility to the antifungal (C. albicans) | Characteristics of the strains: susceptibility to the antifungal (A. terreus) | Characteristics of the strains: susceptibility to the antifungal (C. tropicalis) | Characteristics of the strains: susceptibility to the antifungal (A. niger) | Characteristics of the strains: susceptibility to the antifungal (C. lusitaniae) | Sensitivity or resistance of the strain to the antibiotic (M. abscessus) | Sensitivity or resistance of the strain to the antibiotic (M. fortuitum) | Sensitivity or resistance of the strain to the antibiotic (N. cyriacigeorgica; [1]) | Sensitivity or resistance of the strain to the antibiotic (N. cyriacigeorgica; [2]) | Sensitivity or resistance of the strain to the antibiotic (M. chelonae) | Sensitivity or resistance of the strain to the antibiotic (N. carnea; [3]) | Sensitivity or resistance of the strain to the antibiotic (N. carnea; [4]) | Sensitivity or resistance of the strain to the antibiotic (T. pulmonis; [5]) | Sensitivity or resistance of the strain to the antibiotic (T. pulmonis; [6]) | other results
Clc1ccccc1C(c1ccccc1)(c1ccccc1)n1ccnc1 [Clotrimazole] | S | S | S | S | R | S | S | S | S | S | S | – | – | – | – | – | – | – | – | – | –
CC(=O)NC[C@H]1CN(c2ccc(N3CCOCC3)c(F)c2)C(=O)O1 [LIN, Linezolid] | – | – | – | – | – | – | – | – | – | – | – | S | R | S | S | R | S | S | R | S | Sensitivity or resistance of the strain to the antibiotic (P. aeruginosa): S
Penicillin | – | – | – | – | – | – | – | – | – | – | – | R | R | – | – | R | – | – | – | – | Sensitivity or resistance of the strain to the antibiotic (B. cereus; [7]): S; Sensitivity or resistance of the strain to the antibiotic (B. cereus; [8]): S; Sensitivity or resistance of the strain to the antibiotic (E. faecalis; E. faecalis strain 52, isolation year 2006): R; Sensitivity or resistance of the strain to the antibiotic (E. faecalis; E. faecalis strain 1052, isolation year 2008): R; Sensitivity or resistance of the strain to the antibiotic (E. faecium; E. faecium strain 26, isolation year 2012): R; Sensitivity or resistance of the strain to the antibiotic (E. faecium; E. faecium strain 209, isolation year 2015): R; Sensitivity or resistance of the strain to the antibiotic (E. coli; [9]): R; Sensitivity or resistance of the strain to the antibiotic (E. coli; [10]): R
OC(Cn1cncn1)(Cn1cncn1)c1ccc(F)cc1F [Fluconazole] | S | R | R | S | R | S | S | R | S | R | S | – | – | – | – | – | – | – | – | – | –
C[C@@H]1[C@H](O)[C@@H](C)/C=C/C=C/C=C/C=C/C=C/C=C/C=C/[C@H](O[C@@H]2O[C@H](C)[C@@H](O)[C@H](N)[C@@H]2O)C[C@@H]2O[C@](O)(C[C@@H](O)C[C@@H](O)[C@H](O)CC[C@@H](O)C[C@@H](O)CC(=O)O[C@H]1C)C[C@H](O)[C@H]2C(=O)O [Amphotericin B] | S | S | I | S | R | I | I | I | S | S | I | – | – | – | – | – | – | – | – | – | –
CC[C@H]1OC(=O)[C@H](C)[C@@H](O[C@H]2C[C@@](C)(OC)[C@@H](O)[C@H](C)O2)[C@H](C)[C@@H](O[C@@H]2O[C@H](C)C[C@H](N(C)C)[C@H]2O)[C@](C)(O)C[C@@H](C)C(=O)[C@H](C)[C@@H](O)[C@]1(C)O [ERI, Erythromycin] | – | – | – | – | – | – | – | – | – | – | – | S | R | R | R | R | R | R | R | S | Sensitivity or resistance of the strain to the antibiotic (B. cereus; [7]): R; Sensitivity or resistance of the strain to the antibiotic (B. cereus; [8]): R; Sensitivity or resistance of the strain to the antibiotic (E. coli; [9]): S; Sensitivity or resistance of the strain to the antibiotic (E. coli; [10]): S; Sensitivity or resistance of the strain to the antibiotic (S. epidermidis; S. epidermidis strain 188, isolation year 2009): S; Sensitivity or resistance of the strain to the antibiotic (S. epidermidis; S. epidermidis strain 982, isolation year 2006): R; Sensitivity or resistance of the strain to the antibiotic (S. aureus; S. aureus strain 282, isolation year 2005): R; Sensitivity or resistance of the strain to the antibiotic (S. aureus; S. aureus strain 890, isolation year 2010): R
C[C@@H](O)[C@H]1C(=O)N2C(C(=O)O)=C(SCCN=CN)C[C@H]12 [IMP, Imipenem] | – | – | – | – | – | – | – | – | – | – | – | R | R | R | S | R | R | S | S | S | Sensitivity or resistance of the strain to the antibiotic (A. baumannii; A. baumannii strain 300, isolation year 2001): R; Sensitivity or resistance of the strain to the antibiotic (A. baumannii; A. baumannii strain 1301, isolation year 2009): S; Sensitivity or resistance of the strain to the antibiotic (E. coli; [9]): S; Sensitivity or resistance of the strain to the antibiotic (E. coli; [10]): S
CC(=O)N1CCN(c2ccc(OCC3COC(Cn4ccnc4)(c4ccc(Cl)cc4Cl)O3)cc2)CC1 (centres unmarked) [Ketoconazole] | S | S | S | S | R | S | S | S | S | S | S | – | – | – | – | – | – | – | – | – | –
